Literature values in PMC3910343 (Nephrology Dialysis Transplantation, 2013).

Details: oral cinacalcet

initial half-life: ~6 h
time to steady state: ≤ 7 days
SMILES: C[C@@H](NCCCc1cccc(C(F)(F)F)c1)c1cccc2ccccc12 [cinacalcet]
